Assay results: publication PMC12155888, “Design, Synthesis, and Antitumor Biological Evaluation of Galaxamide and Its Analogs” (Molecules, 2025)
Read-outs that look alike come from different tables or passages of the source. Where a SMILES comes first, the peptide text is derived from it. [ ]: non-standard residue; d: D form. dChg = N[C@@H](C(=O)O)C1CCCCC1; NMeL = CN[C@@H](CC(C)C)C(=O)O; dNMeL = CN[C@H](CC(C)C)C(=O)O

Experiments:
K562 = type: cell-based, human
Protocol: To examine the anticancer activities of galaxamide and its analogs, two different human cancer cell lines, human non-small-cell lung cancer cells (A549) and human chronic myelogenous leukemia (K562), and one normal human cell line, human immortal embryonic kidney cells (293T), were selected for the in vitro cell models. […] The synthetic galaxamide (Gala01) was also tested as the standard. […] A549, K562, and 293T cells were purchased from the Cell Resource Center of the Institute of Basic Medicine, Chinese Academy of Medical Sciences. Both A549 cells and K562 cells were cultured in RPMI (full name: Roswell Park Memorial Institute) 1640 medium containing 10% FBS (full name: fetal bovine serum, product number: C04001-500, Vivacell, Shanghai, China) and 1% p/s (full name: penicillin-streptomycin, product number: 15140122, Gbico, Waltham, MA, USA) for culture. The 293T cells were all cultured in DMEM (full name: Dulbecco's Modified Eagle Medium; cat. no.: C3113-0500, Vivacell, ShanghaiChina; containing 10% FBS and 1% p/s) for cultivation. […] Multiple types of cells were seeded into 96-well plates and treated with different concentrations of […]26 for 48 h after they returned to normal. Then, the relative activity of the cells was detected according to the instructions of the CCK-8 kit (item number: MA0218, Meilunbio, Dalian, China) and analyzed and calculated using GraphPad Prism 8.0.1 software.

A549 = type: cell-based, human
Text: Since the antitumor activity of natural galaxamide is good, we are interested in the antitumor potential of the obtained new analogs. To examine the anticancer activities of galaxamide and its analogs, two different human cancer cell lines, human non-small-cell lung cancer cells (A549) and human chronic myelogenous leukemia (K562), and one normal human cell line, human immortal embryonic kidney cells (293T), were selected for the in vitro cell models. […] The synthetic galaxamide (Gala01) was also tested as the standard. […] It was also found […] the best selectivity and highest safety and is thus worthy of further development for anticancer drugs for K562. A549, K562, and 293T cells were purchased from the Cell Resource Center of the Institute of Basic Medicine, Chinese Academy of Medical Sciences. Both A549 cells and K562 cells were cultured in RPMI (full name: Roswell Park Memorial Institute) 1640 medium containing 10% FBS (full name: fetal bovine serum, product number: C04001-500, Vivacell, Shanghai, China) and 1% p/s (full name: penicillin-streptomycin, product number: 15140122, Gbico, Waltham, MA, USA) for culture. The 293T cells were all cultured in DMEM (full name: Dulbecco's Modified Eagle Medium; cat. no.: C3113-0500, Vivacell, ShanghaiChina; containing 10% FBS and 1% p/s) for cultivation. […] Multiple types of cells were seeded into 96-well plates and treated with different concentrations of […]26 for 48 h after they returned to normal. Then, the relative activity of the cells was detected according to the instructions of the CCK-8 kit (item number: MA0218, Meilunbio, Dalian, China) and analyzed and calculated using GraphPad Prism 8.0.1 software.

[1] = human chronic myelogenous leukemia K562, 48 h, CCK-8, unit given in the text, not in Table 2, read-out: IC50 K562
[2] = human non-small-cell lung cancer cells A549, 48 h, CCK-8, unit given in the text, not in Table 2, read-out: IC50 A549

SMILES	IC50 (K562; 48 h) [µM]	IC50 (A549; 48 h) [µM]	IC50 (K562; [1]) [µM]	IC50 (A549; [2]) [µM]
CC(C)C[C@@H]1NC(=O)[C@H](CC(C)C)N(C)C(=O)[C@H](CC(C)C)NC(=O)[C@H](CC(C)C)N(C)C(=O)[C@@H](CC(C)C)NC1=O [Gala02, Cyclo(Me-L-Leu-L-Leu-D-Leu-Me-L-Leu-L-Leu)] (cyclo(L[NMeL]L[dL][NMeL]))			8.6	> 20
CC(C)C[C@@H]1NC(=O)[C@@H](CC(C)C)N(C)C(=O)[C@H](CC(C)C)NC(=O)[C@@H](CC(C)C)N(C)C(=O)[C@H](CC(C)C)NC1=O [Gala03, Cyclo(Me-D-Leu-L-Leu-L-Leu-Me-D-Leu-L-Leu)] (cyclo(LL[dNMeL]L[dNMeL]))			> 80	> 20
CC(C)C[C@@H]1NC(=O)[C@@H](CC(C)C)NC(=O)[C@H](CC(C)C)N(C)C(=O)[C@@H](CC(C)C)NC(=O)[C@H](CC(C)C)N(C)C1=O [Gala05, Cyclo(Me-L-Leu-D-Leu-L-Leu-Me-L-Leu-D-Leu)] (cyclo(L[NMeL][dL][NMeL][dL]))			10.2	> 20
CC(C)C[C@H]1NC(=O)[C@H](CC(C)C)N(C)C(=O)[C@@H](CC(C)C)NC(=O)[C@H](CC(C)C)N(C)C(=O)[C@@H](CC(C)C)NC1=O [Gala06, Cyclo(Me-L-Leu-D-Leu-D-Leu-Me-L-Leu-D-Leu)] (cyclo([NMeL][dL][NMeL][dL][dL]))			28.8	> 20
CC(C)C[C@@H]1NC(=O)[C@@H](CC(C)C)NC(=O)[C@@H](CC(C)C)N(C)C(=O)[C@@H](CC(C)C)NC(=O)[C@@H](CC(C)C)N(C)C1=O [Gala07, Cyclo(Me-D-Leu-D-Leu-L-Leu-Me-D-Leu-D-Leu)] (cyclo(L[dNMeL][dL][dNMeL][dL]))			> 80	> 20
CC(C)C[C@@H]1NC(=O)[C@H](CC(C)C)N(C)C(=O)[C@H](CC(C)C)NC(=O)[C@H](CC(C)C)N(C)C(=O)[C@@H](Cc2ccccc2)NC1=O [Gala09, Cyclo(Me-L-Leu-L-Leu-D-Phe-Me-L-Leu-L-Leu)]	14.9	> 20		

Second part, led by results:

IC50 (K562; 48 h) [µM]	IC50 (A549; 48 h) [µM]	SMILES	IC50 (K562; [1]) [µM]	IC50 (A549; [2]) [µM]
27.2	> 20	CC(C)C[C@@H]1NC(=O)[C@H](CC(C)C)N(C)C(=O)[C@H](CC(C)C)NC(=O)[C@H](CC(C)C)N(C)C(=O)CNC1=O [Gala10, Cyclo(Me-L-Leu-L-Leu-Gly-Me-L-Leu-L-Leu)] (cyclo([NMeL]LG[NMeL]L))		
> 80	> 20	COc1ccc(C[C@H]2NC(=O)[C@H](CC(C)C)NC(=O)[C@H](CC(C)C)N(C)C(=O)[C@H](CC(C)C)NC(=O)[C@H](CC(C)C)N(C)C2=O)cc1 [Gala13, Cyclo(Me-L-Leu-L-Leu-O-Tyr-Me-L-Leu-L-Leu)] (cyclo(L[NMeL]L[dY](Me)[NMeL]))		
13	> 20	CC(C)C[C@@H]1NC(=O)[C@H](CC(C)C)N(C)C(=O)[C@H](CC(C)C)NC(=O)[C@H](CC(C)C)N(C)C(=O)[C@@H](Cc2cccc(F)c2)NC1=O [Gala15, Cyclo(Me-L-Leu-L-Leu-3-Flu-D-Phe-Me-L-Leu-L-Leu)]		
> 80	> 20	Cc1ccccc1C[C@H]1NC(=O)[C@H](CC(C)C)NC(=O)[C@H](CC(C)C)N(C)C(=O)[C@H](CC(C)C)NC(=O)[C@H](CC(C)C)N(C)C1=O [Gala16, Cyclo(Me-L-Leu-L-Leu-2-Me-D-Phe-Me-L-Leu-L-Leu)]		
77.7	> 20	CC(C)C[C@@H]1NC(=O)[C@H](CC(C)C)N(C)C(=O)[C@H](CC(C)C)NC(=O)[C@H](CC(C)C)N(C)C(=O)[C@@H](Cc2ccc(Cl)cc2)NC1=O [Gala17, Cyclo(Me-L-Leu-L-Leu-4-Chl-D-Phe-Me-L-Leu-L-Leu)]		
75.2	> 20	CC(C)C[C@@H]1NC(=O)[C@H](CC(C)C)N(C)C(=O)[C@H](CC(C)C)NC(=O)[C@H](CC(C)C)N(C)C(=O)[C@@H](C2CCCCC2)NC1=O [Gala19, Cyclo(Me-L-Leu-L-Leu-D-cyclohexyl-Gly-Me-L-Leu-L-Leu)] (cyclo(L[NMeL]L[dChg][NMeL]))		
